Measured values published in the supplement of paper PMC10307832.

How the values were obtained:
Test in all cases: relative viability (nuclei count vs DMSO), 5 days (fraction); higher = more cells survive
Venetoclax + Phenformin = compound: CC1(C)CCC(CN2CCN(c3ccc(C(=O)NS(=O)(=O)c4ccc(NCC5CCOCC5)c([N+](=O)[O-])c4)c(Oc4cnc5[nH]ccc5c4)c3)CC2)=C(c2ccc(Cl)cc2)C1 [Venetoclax] + N=C(N)NC(=N)NCCc1ccccc1 [Phenformin] (partner 250 µM)
In short: (§1)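 Relative viability equals treated-well nuclei counts divided by vehicle-well nuclei counts. Counts came from 4× images of lung cancer cell lines grown in 1536-well plates for 5 days after pin-tool dosing on the day after seeding. Dosing used one drug alone or a fixed anchor-drug dose plus five library-drug doses (not always all listed) in √10 steps, and values are medians of duplicate plates.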

Selumetinib + Lapatinib = compound: Cn1cnc2c(F)c(Nc3ccc(Br)cc3Cl)c(C(=O)NOCCO)cc21 [Selumetinib] + CS(=O)(=O)CCNCc1ccc(-c2ccc3ncnc(Nc4ccc(OCc5cccc(F)c5)c(Cl)c4)c3c2)o1 [Lapatinib] (partner 2 µM)
In short: as §1

Selumetinib + Bortezomib = compound: Cn1cnc2c(F)c(Nc3ccc(Br)cc3Cl)c(C(=O)NOCCO)cc21 [Selumetinib] + CC(C)C[C@H](NC(=O)[C@H](Cc1ccccc1)NC(=O)c1cnccn1)B(O)O [Bortezomib] (partner 0.002 µM)
In short: as §1

Venetoclax + Tozasertib = compound: CC1(C)CCC(CN2CCN(c3ccc(C(=O)NS(=O)(=O)c4ccc(NCC5CCOCC5)c([N+](=O)[O-])c4)c(Oc4cnc5[nH]ccc5c4)c3)CC2)=C(c2ccc(Cl)cc2)C1 [Venetoclax] + Cc1cc(Nc2cc(N3CCN(C)CC3)nc(Sc3ccc(NC(=O)C4CC4)cc3)n2)n[nH]1 [Tozasertib] (partner 0.1 µM)
In short: as §1

Row | Cell Line | relative viability (Venetoclax + Phenformin; first compound 0.01 µM) | relative viability (Venetoclax + Phenformin; first compound 0.03162 µM) | relative viability (Venetoclax + Phenformin; first compound 0.1 µM) | relative viability (Venetoclax + Phenformin; first compound 0.3162 µM) | relative viability (Venetoclax + Phenformin; first compound 1 µM) | relative viability (Selumetinib + Lapatinib; first compound 0.02 µM) | relative viability (Selumetinib + Lapatinib; first compound 0.06325 µM) | relative viability (Selumetinib + Lapatinib; first compound 0.2 µM) | relative viability (Selumetinib + Lapatinib; first compound 0.6325 µM) | relative viability (Selumetinib + Bortezomib; first compound 0.02 µM) | relative viability (Selumetinib + Bortezomib; first compound 0.06325 µM) | relative viability (Selumetinib + Bortezomib; first compound 0.2 µM) | relative viability (Selumetinib + Bortezomib; first compound 0.6325 µM) | relative viability (Venetoclax + Tozasertib; first compound 0.01 µM) | relative viability (Venetoclax + Tozasertib; first compound 0.03162 µM) | relative viability (Venetoclax + Tozasertib; first compound 0.1 µM) | relative viability (Venetoclax + Tozasertib; first compound 0.3162 µM) | relative viability (Venetoclax + Tozasertib; first compound 1 µM)
1 | HCC-366 | 0.553 | 0.613 | 0.578 | 0.574 | 0.545 | 1.06 | 0.914 | 0.872 | 0.612 | 1.07 | 0.935 | 0.864 | 0.761 | 0.094 | 0.119 | 0.123 | 0.0769 | 0.0514
2 | HCC-827 | 0.473 | 0.497 | 0.344 | 0.406 | 0.394 | 0.175 | 0.182 | 0.187 | 0.18 | 1.22 | 1.03 | 1.02 | 0.975 | 0.417 | 0.413 | 0.4 | 0.416 | 0.385
3 | HOP-62 | 0.622 | 0.655 | 0.67 | 0.649 | 0.64 | 1.08 | 0.86 | 0.732 | 0.636 | 1.06 | 0.779 | 0.496 | 0.475 | 0.414 | 0.321 | 0.409 | 0.31 | 0.313
4 | LC-2-ad | 0.595 | 0.606 | 0.551 | 0.616 | 0.565 | 0.91 | 0.879 | 0.736 | 0.842 | 1.05 | 1.01 | 0.831 | 0.943 | 0.418 | 0.398 | 0.425 | 0.535 | 0.433
5 | LCLC-97TM1 | 0.463 | 0.494 | 0.461 | 0.449 | 0.385 | 1.05 | 0.985 | 0.86 | 0.481 | 0.522 | 0.379 | 0.294 | 0.157 | 0.302 | 0.27 | 0.207 | 0.185 | 0.202
6 | LOU-NH91 | 0.641 | 0.784 | 0.615 | 0.742 | 0.698 | 0.759 | 0.707 | 0.758 | 0.766 | 0.465 | 0.479 | 0.476 | 0.479 | 0.652 | 0.697 | 0.576 | 0.684 | 0.604
7 | LU99A | 0.852 | 0.92 | 0.799 | 0.878 | 0.822 | 1.05 | 1 | 1.02 | 0.963 | 1.35 | 1.05 | 1.18 | 1.37 | 0.28 | 0.26 | 0.234 | 0.295 | 0.321
8 | LXF-289 | 0.482 | 0.538 | 0.509 | 0.503 | 0.505 | 0.874 | 0.839 | 0.761 | 0.758 | 0.934 | 0.891 | 0.8 | 0.748 | 0.217 | 0.218 | 0.187 | 0.216 | 0.213
